Data from patent US12636385B2, “Selective ligands for tau aggregates” (Sentonix, Inc., priority 2018, dated 2026).

What was measured:
Aβ(1-42) amyloid fibrils = biological target: T1, Aβ(1-42) amyloid fibrils (Homo sapiens, UniProt P05067); test: ^3H-AZD2184 competition binding to Aβ(1-42) fibrils in vitro; conditions: [^3H]-AZD2184, Aβ(1-42) amyloid fibrils; average if run more than once
T1 construct: Aβ(1-42) amyloid fibrils
Method: Competition binding experiments to Aβ(1-42) amyloid fibrils were performed as previously described in Jureus, A., et al, Journal of Neurochemistry (2010), Vol. 114, pages 784-794 for the Example compounds of the invention indicated in Table 2, or the known tau specific ligand PBB3 (PBB3 was synthesized as previously described in M. Maruyama, et al, Neuron 2013, 79, 1094-1108).
The results are shown in Table 2 in the column labeled “Aβ IC50”.

0N4R Tau fibrils [1] = biological target: T2, 0N4R Tau fibrils (Homo sapiens, UniProt P10636); test: ^3H-THK5117 competition binding to tau fibrils in vitro; conditions: for Selectivity for tau relative to Aβ: calculated from [^3H]-THK5117 tau and [^3H]-AZD2184 Aβ assays
T2 construct: made in house
T2 sequence (P10636 1-383 isoform P10636-6): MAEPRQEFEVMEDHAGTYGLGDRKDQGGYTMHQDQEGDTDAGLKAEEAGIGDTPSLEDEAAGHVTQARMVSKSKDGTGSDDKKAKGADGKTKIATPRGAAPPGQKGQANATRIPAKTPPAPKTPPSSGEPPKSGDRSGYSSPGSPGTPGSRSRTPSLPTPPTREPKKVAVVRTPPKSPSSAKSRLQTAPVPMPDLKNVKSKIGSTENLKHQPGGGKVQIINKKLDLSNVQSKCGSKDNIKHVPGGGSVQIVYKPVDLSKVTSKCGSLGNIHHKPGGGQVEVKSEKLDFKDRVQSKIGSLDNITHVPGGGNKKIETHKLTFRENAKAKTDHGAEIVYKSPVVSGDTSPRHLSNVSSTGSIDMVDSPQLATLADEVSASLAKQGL
Method: Preparation of recombinant 0N4R Tau fibrils was performed as previously described in Morozova, O. A., Biochemistry (2013), Vol., 52(40), pages 6960-6967. Competition binding experiments to 0N4R Tau fibrils were performed by incubating increasing concentrations [10^−10-10^−6 M] of the Example compounds of the invention, or the known tau specific ligand PBB3 (PBB3 was synthesized as previously described in M. Maruyama, et al, Neuron 2013, 79, 1094-1108) or MK6240 (Novandi Chemistry AB), in the presence of 3 nM of the known tau ligand [^3H]-THK5117 (Novandi Chemistry) and 0.2 mM 0N4R tau fibrils in binding buffer (50 mM Tris-HCl, pH 7.4, 0.1% BSA) for 1 h in the dark, and at 22° C. The incubation was terminated by filtration through a Whatman GF/B glass filter (Whatman International, Kent, UK) using a Brandel cell harvester. The filter was then washed rapidly four times with 3 mL of ice-cold wash buffer (5 mM Tris-HCl, 0.25 mM NaCl, 5% EtOH), and equilibrated for 1 h in scintillation vials containing 5 mL of Ultima Gold scintillation fluid before being analysed using a Liquid Scintillation Analyzer.
The results are shown in Table 2 in the column labeled “Tau IC50”.
Relative selectivity for tau compared to Aβ for the exemplified compounds was calculated using the results for the [^3H]-THK5117 tau and [^3H]-AZD2184 Aβ assays described above. The calculated results are shown in Table 2 in the column labeled “Selectivity for tau relative to Aβ”.

[2] = Rat brain cassette exposure study; assay type: in vivo, Sprague Dawley rat; conditions: intravenous cassette dosing
Method: The in vivo pharmacokinetic characteristics of the example compounds of the invention were compared directly with the known beta-amyloid specific ligand AZD2184 (Johnson, A. E., et al, Journal of Neurochemistry (2009), Vol. 108, pages 1177-1186). Rat brain exposure to three compounds of the invention and AZD2184 was measured by intravenous cassette dosing three test compound: Example Compound 43, Example Compound 47 and Example Compound 48; and AZD2184 (Novandi Chemistry) (concentration of 0.25 μmol/mL each) using the procedure previously described in Johnson, A. E., et al, Journal of Neurochemistry (2009), Vol. 108, pages 1177-1186. 6 male Sprague Dawley rat were used in the experiments, three rats per time point (2 min and 30 min).

0N4R Tau fibrils [3] = biological target: T2, 0N4R Tau fibrils; test: In vitro competitive binding to 0N4R tau fibrils in the presence of [^3H]-Example Compound 68 (FIG. 1)
tau plaques = test: Autoradiography on brain sections from CBD and PSP patients; assay type: binding, human; conditions: 3 nM radiotracer, with or without 1 μM unlabeled compound; compared with antibody AT8
Sequence of tau plaques (P10636 561-708 limits assumed): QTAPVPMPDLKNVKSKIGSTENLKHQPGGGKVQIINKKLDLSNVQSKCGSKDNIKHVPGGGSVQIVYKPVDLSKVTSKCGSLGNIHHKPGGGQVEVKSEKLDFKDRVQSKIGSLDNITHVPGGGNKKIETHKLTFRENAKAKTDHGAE
Method: To examine binding of the example compounds of the present invention to tau plaques in vitro, autoradiography was carried out on brain sections from corticobasal degeneration (CBD) and progressive supranuclear palsy (PSP) patients incubated with [^3H]-Example Compound 72 or [^3H]-Example Compound 48 in the presence or absence of unlabeled Example Compound […] (1 μM) or unlabeled Example Compound 48 (1 μM), respectively. The experiment was performed as previously described in Johnson, A. E., et al, Journal of Neurochemistry (2009), Vol. 108, pages 1177-1186, but using post mortem cortical samples from corticobasal degeneration (CBD) and progressive supranuclear palsy (PSP) patients instead of from Alzheimer's disease patients.
Briefly, brain sections from the cortical samples were incubated for 30 min at 22° C. in 50 mN Tris buffer (pH 7.4) together with 3 nM [^3H]-Example Compound 72 or 3 nM [^3H]-Example Compound 48 in the presence of absence of on unlabeled Example Compound 72 (1 μM) or unlabeled Example Compound 48 (1 μM), respectively. The sections were then washed (3×10 min) in Tris buffer (1° C.) followed by a rinse in deionized water (1° C.) and air-dried at 22° C. in front of a fan. Binding was then measured and analysed as described in Johnson, A. E., et al.
The tau pathology was confirmed on adjacent brain sections by immunohisto-chemistry (IHC) using Phospho-Tau (Ser202, Thr205) Monoclonal Antibody (AT8) as previously as described in Biernat, J., et al, EMBO J. (1992) Vol. 4, pages 1593-1597. AT8 was obtained from Thermo Fisher Scientific (Phospho-PHF-Tau, Thermo Ficher Scientific, Catalog No. MN1020, Stock cone: 0.2 mg/ml, Working solution: 1/100).

[4] = 3 nM [^3H]-THK5117, recombinant 0N4R tau fibrils, average if run more than once

T1 sequence (P05067 672-713): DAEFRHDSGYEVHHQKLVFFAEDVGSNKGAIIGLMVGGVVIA

Row | Compound | IC50 (Aβ(1-42) amyloid fibrils) [nM] | IC50 (0N4R Tau fibrils [1]; [4]) [nM] | Selectivity for tau relative to Aβ (0N4R Tau fibrils [1]) | also measured
1 | FCCOCCOCCOC1CCN(c2ncc(-c3cc4ccccc4o3)cn2)CC1 [Compound 33] | 6 | 28 | 0.2 | –
2 | OCCC1CCN(c2ncc(-c3nc4ccc(O)cc4s3)cn2)CC1 [Compound 38] | 250 | 6 | 42 | –
3 | Oc1ccc2nc(-c3cnc(N4CCC(CCF)CC4)nc3)sc2c1 [Compound 39] | 50 | 1.5 | 33 | –
4 | OCCC1CCN(c2ccc(-c3cc4ccccc4o3)c(F)n2)CC1 [Compound 46] | 53 | 6 | 8.8 | –
5 | COc1ccc2[nH]c(-c3ccc(N4CCC(CO)CC4)nc3F)cc2c1 [Compound 47] | 33 | 2 | 17 | –
6 | OCC1CCN(c2ccc(-c3cc4cc(O)ccc4[nH]3)c(F)n2)CC1 [Compound 48] | 187 | 5 | 37 | –
7 | FCCC1CCN(c2ncc(-c3cn4ccccc4n3)cn2)CC1 [Compound 52] | 84 | 49 | 1.7 | –
8 | OCC1CCN(c2ccc(-c3nc4ccc(OCCF)cc4s3)cn2)CC1 [Compound 56] | 3 | 2 | 1.5 | –
9 | OCC1CCN(c2ccc(-c3nc4ccc(OCCF)cc4o3)cn2)CC1 [Compound 62, (1-{5-[6-(2-Fluoroethoxy)-1,3-benzoxazol-2-yl]pyridin-2-yl}piperidin-4-yl)methanol] | 9 | 22 | 0.4 | –
10 | CCOC(=O)C1CCN(c2ccc(-c3cc4cc(O)ccc4[nH]3)c(F)n2)CC1 [Compound 65] | 44 | 2 | 22 | –
11 | COC(=O)C1CCN(c2ccc(-c3cc4cc(O)ccc4[nH]3)c(F)n2)CC1 [Compound 67] | 32 | 4 | 8 | –
12 | COc1ccc2[nH]c(-c3ccc(N4CCC(C(N)=O)CC4)nc3F)cc2c1 [Compound 68] | 72 | 7 | 10 | –
13 | OCC1CCN(c2ncc(-c3cc4cc(OCCF)ccc4[nH]3)cn2)CC1 [Compound 72, (1-{5-[5-(2-Fluoroethoxy)-1H-indol-2-yl]pyrimidin-2-yl}piperidin-4-yl)methanol] | 42 | 7 | 6 | –
14 | COc1ccc2[nH]c(-c3ccc(N4CCC(CO)CC4)nc3F)cc2c1 [Example Compound 47, {1-[6-Fluoro-5-(5-methoxy-1H-indol-2-yl)pyridin-2-yl]piperidin-4-yl}methanol] | – | – | – | clearance from normal rat brain tissue ([2]; 2 min and 30 min): rapidly cleared; half-life ([2]; male, Sprague Dawley, rat, brain, samples at 2 min and 30 min, read-out: calculated half-life (t1/2) in rat brain tissue): 15.8 min
15 | COc1ccc2[nH]c(-c3ccc(N4CCC(C(N)=O)CC4)nc3F)cc2c1 [Example Compound 68, 1-[6-Fluoro-5-(5-methoxy-1H-indol-2-yl)pyridin-2-yl]piperidine-4-carboxamide] | – | – | – | tau binding site shared (competition with [^3H]-Example Compound 68) (0N4R Tau fibrils [3]): share the same binding site
16 | [^3H] labeled 2-(2-fluoro-6-{4-[hydroxymethyl]piperidin-1-yl}pyridin-3-yl)-1H-indol-5-ol [[^3H]-Example Compound 48] | – | – | – | radiotracer binding in CBD brain tissue (tau plaques): displaceable binding in CBD brain tissue that correlates with the tau-specific antibody AT8; radiotracer binding in PSP brain tissue (tau plaques): displaceable binding in PSP brain tissue that correlates with the tau-specific antibody AT8

Further lines, with some results ahead:

Row | IC50 (Aβ(1-42) amyloid fibrils) [nM] | IC50 (0N4R Tau fibrils [1]; [4]) [nM] | Selectivity for tau relative to Aβ (0N4R Tau fibrils [1]) | Compound | also measured
17 | 91 | 3 | 30 | OCCC1CCN(c2ccc(-c3nc4ccc(O)cc4s3)cn2)CC1 [Compound 36] | –
18 | 70 | 6 | 12 | N#Cc1ccc2nc(-c3cnc(N4CCC(CCO)CC4)nc3)sc2c1 [Compound 40] | –
19 | 72 | 4 | 18 | NC(=O)c1ccc2nc(-c3cnc(N4CCC(CCF)CC4)nc3)sc2c1 [Compound 43] | –
20 | 42 | 9 | 4.7 | OCC1CCN(c2ccc(-c3cc4ccccc4o3)c(F)n2)CC1 [Compound 45] | –
21 | 37 | 14 | 2.6 | COc1ccc2nc(-c3cnc(N4CCC(CCF)CC4)nc3)cn2c1 [Compound 53] | –
22 | 302 | 12 | 25 | OCC1CCN(c2ncc(-c3nc4ccc(O)cc4s3)cn2)CC1 [Compound 57] | –
23 | 37 | 6 | 6.2 | OCC1CCN(c2ncc(-c3nc4ccc(OCCF)cc4s3)cn2)CC1 [Compound 58] | –
24 | 28 | 11 | 2.5 | O=C(NCCO)c1ccc2nc(-c3cnc(N4CCC(CCF)CC4)nc3)sc2c1 [Compound 60] | –
25 | 272 | 21 | 13 | NC(=O)C1CCN(c2ccc(-c3cc4cc(O)ccc4[nH]3)c(F)n2)CC1 [Compound 66] | –
26 | 169 | 10 | 17 | Oc1ccc2[nH]c(-c3cnc(N4CCC(CF)CC4)nc3)cc2c1 [Compound 69, 2-{2-[4-(Fluoromethyl)piperidin-1-yl]pyrimidin-5-yl}-1H-indol-5-ol] | –
27 | 114 | 16 | 7.1 | COc1ccc2[nH]c(-c3ccc(N4CCC(C(N)=O)CC4)nc3)cc2c1 [Compound 71, 1-[5-(5-Methoxy-1H-indol-2-yl)pyridin-2-yl]piperidine-4-carboxamide] | –
28 | 322 | 9 | 36 | COc1ncc2cc(-c3ccc(N4CCC(CO)CC4)nc3F)[nH]c2n1 [Compound 76, [1-(6-Fluoro-5-{2-methoxy-7H-pyrrolo[2,3-d]pyrimidin-6-yl}pyridin-2-yl)piperidin-4-yl]methanol] | –
29 | – | > 1000 | – | Nc1c(F)ccc2cnc(-n3ccc4ccncc43)cc12 [MK-6240, reference compound] | tau binding site shared (competition with [^3H]-Example Compound 68) (0N4R Tau fibrils [3]): does not share the same binding site; Tau IC50 (0N4R Tau fibrils [1]; [4]): inactive
30 | – | – | 4 | CNc1ccc(/C=C/C=C/c2nc3ccc(O)cc3s2)cn1 [PBB3, reference compound] | tau binding site shared (competition with [^3H]-Example Compound 68) (0N4R Tau fibrils [3]): share the same binding site
